Read-outs that look alike come from different tables or passages of the source.

Common to all, as to type: biochemical
In assay [1] the target is CDK2/CCNE1 (Homo sapiens, UniProt P24941). Kind of assay: CDK2 homogeneous time-resolved fluorescence (HTRF) kinase assay. As to conditions: CDK2/CCNE. The gist of the method: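 TR-FRET read-out (665 nm, or 665/615 ratio) of Eu-antibody detection of phospho-4E-BP1 (Thr37/46) ULight peptide. Enzyme 3 nM, ATP 1 mM, peptide 50 nM, 1% DMSO; 60 min reaction at 23 °C after 20 min compound preincubation. IC50 from 11-point half-log titrations, top typically 10 μM.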
In general terms: Time-resolved FRET reads energy transfer from a long-lived donor to a nearby acceptor.

For assay [2], the target named is CDK4/CCND3 (Homo sapiens, UniProt P11802). Kind of assay: CDK4 homogeneous time-resolved fluorescence (HTRF) kinase assay. Conditions: CDK4/CCND. The gist of the method: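 HTRF kinase assay, CDK4/CCND3 1.5 nM, ATP 1 mM, ULight-4E-BP1 peptide 50 nM, 23 °C, 60 min reaction after 20 min preincubation. Eu-anti-pThr37/46 antibody detection. 11-pt half-log curves from 10 μM → IC50.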
CDK4/CCND3, sequence (P11802 whole entry): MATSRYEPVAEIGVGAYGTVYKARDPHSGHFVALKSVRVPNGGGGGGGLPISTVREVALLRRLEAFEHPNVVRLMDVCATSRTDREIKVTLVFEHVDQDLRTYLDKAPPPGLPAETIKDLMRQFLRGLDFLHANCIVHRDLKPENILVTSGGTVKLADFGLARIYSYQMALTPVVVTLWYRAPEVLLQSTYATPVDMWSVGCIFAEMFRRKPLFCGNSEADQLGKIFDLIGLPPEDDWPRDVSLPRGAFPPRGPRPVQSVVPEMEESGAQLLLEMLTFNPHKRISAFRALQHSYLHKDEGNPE
CDK4/CCND3, sequence (P30281 whole entry partner): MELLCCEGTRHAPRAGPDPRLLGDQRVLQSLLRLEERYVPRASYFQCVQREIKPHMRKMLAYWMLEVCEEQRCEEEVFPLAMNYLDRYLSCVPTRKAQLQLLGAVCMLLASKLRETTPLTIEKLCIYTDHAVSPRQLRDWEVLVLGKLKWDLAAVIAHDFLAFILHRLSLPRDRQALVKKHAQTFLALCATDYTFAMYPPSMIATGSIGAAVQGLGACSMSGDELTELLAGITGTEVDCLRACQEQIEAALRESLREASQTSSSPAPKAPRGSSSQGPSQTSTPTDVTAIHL

Assay [3] deals with CDK1/CCNB1 (Homo sapiens, UniProt P06493). Kind of assay: CDK1 homogeneous time-resolved fluorescence (HTRF) kinase assay. Conditions: CDK1/CCNB. The gist of the method:
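Compounds, titrated 11 points in half-log steps typically from 10 μM, were incubated with enzyme for 20 min before ATP (1 mM) and ULight-labelled eIF4E-binding protein 1 peptide (50 nM) started a 60-min reaction at 23 °C. Phosphopeptide was detected by europium-antibody TR-FRET and IC50 values were derived.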

In assay [4] the target is CDK6/CCND1 (Homo sapiens, UniProt Q00534). Kind of assay: CDK6 homogeneous time-resolved fluorescence (HTRF) kinase assay. Conditions: CDK6/CCND. The method in brief: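 Recombinant CDK6/CCND1 (1 nM final) was preincubated with compound for 20 min at 23 °C in HEPES buffer with MgCl2, EGTA, DTT and Tween 20. Kinase reaction then ran 60 min at 23 °C with 1 mM ATP and 50 nM ULight-4E-BP1 (Thr37/46) peptide, and was stopped with EDTA.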
CDK6/CCND1, sequence (Q00534 whole entry): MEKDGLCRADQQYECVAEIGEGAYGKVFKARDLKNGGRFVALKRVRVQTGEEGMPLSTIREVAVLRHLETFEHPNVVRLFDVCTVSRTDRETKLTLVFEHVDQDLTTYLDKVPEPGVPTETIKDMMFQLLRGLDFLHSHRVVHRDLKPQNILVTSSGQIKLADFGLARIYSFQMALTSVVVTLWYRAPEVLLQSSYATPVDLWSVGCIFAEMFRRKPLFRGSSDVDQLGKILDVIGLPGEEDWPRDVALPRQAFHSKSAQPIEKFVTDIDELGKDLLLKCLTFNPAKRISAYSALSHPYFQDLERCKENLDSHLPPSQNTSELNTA
CDK6/CCND1, sequence (P24385 whole entry partner): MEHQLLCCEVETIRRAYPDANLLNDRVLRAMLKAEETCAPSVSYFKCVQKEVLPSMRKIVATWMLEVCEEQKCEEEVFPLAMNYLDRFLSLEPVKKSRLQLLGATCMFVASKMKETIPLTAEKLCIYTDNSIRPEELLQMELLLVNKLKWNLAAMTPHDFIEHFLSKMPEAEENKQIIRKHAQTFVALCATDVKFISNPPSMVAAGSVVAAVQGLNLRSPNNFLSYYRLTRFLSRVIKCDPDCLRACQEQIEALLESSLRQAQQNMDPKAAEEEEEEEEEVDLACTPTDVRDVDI

[5] abbreviates: x = IC50 <25 nM, read-out: CDK2/CCNE IC50 (<25 nM).
The mark [6] stands for this setting: x = IC50 <25 nM, read-out: CDK4/CCND IC50 (<25 nM).
Setting [7] is: x = IC50 25-250 nM, read-out: CDK1/CCNB IC50 (25-250 nM).
[8] abbreviates: x = IC50 25-250 nM, read-out: CDK6/CCND IC50 (25-250 nM).
The mark [9] stands for this setting: x = IC50 25-250 nM, read-out: CDK4/CCND IC50 (25-250 nM).
The mark [10] stands for this setting: x = IC50 >250 nM, read-out: CDK6/CCND IC50 (>250 nM column).
Setting [11] is: x = IC50 25-250 nM, read-out: CDK2/CCNE IC50 (25-250 nM).
The mark [12] stands for this setting: x = IC50 >250 nM, read-out: CDK4/CCND IC50 (>250 nM column).
The mark [13] stands for this setting: x = IC50 >250 nM, read-out: CDK1/CCNB IC50 (>250 nM column).
The mark [14] stands for this setting: 25-250 nM, read-out: CDK2/CCNE IC50, 25-250 nM.
Where [15] appears, read: >250 nM, read-out: CDK4/CCND IC50, >250 nM.
Where [16] appears, read: >250 nM, read-out: CDK1/CCNB IC50 >250 nM.
Setting [17] is: >250 nM, 1 mM ATP, read-out: CDK6/CCND IC50, >250 nM.
Where [18] appears, read: <25 nM, read-out: CDK2/CCNE IC50, <25 nM.
The mark [19] stands for this setting: 25-250 nM, read-out: CDK4/CCND IC50, 25-250 nM.
Setting [20] is: 25-250 nM, 1 mM ATP, read-out: CDK6/CCND IC50, 25-250 nM.

CDK1/CCNB1, sequence (P06493 whole entry): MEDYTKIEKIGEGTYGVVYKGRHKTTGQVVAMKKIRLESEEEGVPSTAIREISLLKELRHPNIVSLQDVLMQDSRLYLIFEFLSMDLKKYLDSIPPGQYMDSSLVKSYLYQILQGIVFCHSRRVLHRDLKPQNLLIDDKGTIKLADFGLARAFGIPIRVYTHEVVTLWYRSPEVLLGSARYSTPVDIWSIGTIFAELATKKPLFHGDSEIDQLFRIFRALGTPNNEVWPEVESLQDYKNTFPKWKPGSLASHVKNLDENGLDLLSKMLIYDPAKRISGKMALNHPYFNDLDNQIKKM
CDK1/CCNB1, sequence (P14635 whole entry partner): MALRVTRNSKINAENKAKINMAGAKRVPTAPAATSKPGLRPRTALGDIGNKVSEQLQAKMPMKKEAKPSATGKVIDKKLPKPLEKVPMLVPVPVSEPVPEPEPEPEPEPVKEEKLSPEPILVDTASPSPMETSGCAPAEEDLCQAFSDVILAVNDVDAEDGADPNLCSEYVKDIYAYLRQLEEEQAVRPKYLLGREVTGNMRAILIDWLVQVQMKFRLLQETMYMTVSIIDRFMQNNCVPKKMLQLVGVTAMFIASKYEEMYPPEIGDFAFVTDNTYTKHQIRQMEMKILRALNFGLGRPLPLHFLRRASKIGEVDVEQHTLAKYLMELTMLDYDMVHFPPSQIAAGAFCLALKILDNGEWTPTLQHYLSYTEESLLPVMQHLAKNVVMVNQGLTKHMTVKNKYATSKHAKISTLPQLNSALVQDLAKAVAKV

On to `CC1(C)C(=O)Nc2cc(C#Cc3nccc4cnc(Nc5ccc(S(=N)(=O)C6CC6)cc5)cc34)ccc21` (single isomer, unassigned) [Ex 437, 6-((7-((4-(cyclopropanesulfonimidoyl)phenyl)amino)-2,6-naphthyridin-1-yl)ethynyl)-3,3-dimethylindolin-2-one], for which the IC50 in assay [1] (setting [5]) was below 0.025 µM; in assay [2] (setting [6]), below 0.025 µM; in assay [3] (setting [7]) it was 0.025 to 0.25 µM; in assay [4] (setting [8]), 0.025 to 0.25 µM.
In the case of `CC1(C)C(=O)Nc2cc(C#Cc3nccc4cnc(Nc5ccc(S(C)(=N)=O)cc5)cc34)ccc21` (single isomer, unassigned) [Ex 451, 3,3-dimethyl-6-((7-((4-(S-methylsulfonimidoyl)phenyl)amino)-2,6-naphthyridin-1-yl)ethynyl)indolin-2-one], the IC50 in assay [1] (setting [5]) was below 0.025 µM; in assay [2] (setting [9]), 0.025 to 0.25 µM; in assay [3] (setting [7]), 0.025 to 0.25 µM; in assay [4] (setting [10]) it was above 0.25 µM.
For `CC(C)S(=N)(=O)c1ccc(Nc2cc3c(C#Cc4ccc5c(c4)NC(=O)C5(C)C)nccc3cn2)cc1` (single isomer, unassigned) [Ex 455, 3,3-dimethyl-6-((7-((4-(propan-2-ylsulfonimidoyl)phenyl)amino)-2,6-naphthyridin-1-yl)ethynyl)indolin-2-one], the IC50 in assay [1] (setting [5]) was below 0.025 µM; in assay [2] (setting [9]) it was 0.025 to 0.25 µM; in assay [2] (setting [6]), below 0.025 µM; in assay [3] (setting [7]), 0.025 to 0.25 µM; in assay [4] (setting [8]), 0.025 to 0.25 µM.
For `CCS(=N)(=O)c1ccc(Nc2cc3c(C#Cc4ccc5c(c4)NC(=O)C5(C)C)nccc3cn2)cc1` (single isomer, unassigned) [Ex 462, 6-((7-((4-(ethylsulfonimidoyl)phenyl)amino)-2,6-naphthyridin-1-yl)ethynyl)-3,3-dimethylindolin-2-one], the IC50 was below 0.025 µM in assay [1] (setting [5]), 0.025 to 0.25 µM in assay [2] (setting [9]), 0.025 to 0.25 µM in assay [3] (setting [7]) and 0.025 to 0.25 µM in assay [4] (setting [8]).
On to `CCS(=N)(=O)c1ccc(Nc2cc3c(C#Cc4cccnc4N)nccc3cn2)cc1` (single isomer, unassigned) [Ex 474, (4-((5-((2-aminopyridin-3-yl)ethynyl)-2,6-naphthyridin-3-yl)amino)phenyl)(ethyl)(imino)-l6-sulfanone], for which the IC50 in assay [1] (setting [11]) was 0.025 to 0.25 µM; in assay [2] (setting [12]), above 0.25 µM; in assay [3] (setting [13]), above 0.25 µM; in assay [4] (setting [10]) it was above 0.25 µM.
For `CS(=N)(=O)c1ccc(Nc2cc3c(C#Cc4cccnc4N)nccc3cn2)cc1` (single isomer, unassigned) [Ex 480, (4-((5-((2-aminopyridin-3-yl)ethynyl)-2,6-naphthyridin-3-yl)amino)phenyl)(imino)(methyl)-l6-sulfanone], the IC50 was 0.025 to 0.25 µM in assay [1] (setting [11]), above 0.25 µM in assay [2] (setting [12]), above 0.25 µM in assay [3] (setting [13]) and above 0.25 µM in assay [4] (setting [10]).
As for `CC(O)CN1CCC(C#Cc2nccc3cnc(Nc4ccc(S(C)(=O)=O)cc4)cc23)CC1` (single isomer, unassigned) [Ex 607, 1-(4-((7-((4-(methylsulfonyl)phenyl)amino)-2,6-naphthyridin-1-yl)ethynyl)piperidin-1-yl)propan-2-ol], the IC50 was below 0.025 µM in assay [1] (setting [5]), above 0.25 µM in assay [2] (setting [12]), above 0.25 µM in assay [3] (setting [13]) and 0.025 to 0.25 µM in assay [4] (setting [8]).
Regarding `Cc1c(-c2nccc3cnc(Nc4ccc(S(=N)(N)=O)cc4)cc23)ccc2c1cnn2CC(O)(C(F)(F)F)C(F)(F)F` (single isomer, unassigned) [Ex 679, 4-((5-(4-methyl-1-(3,3,3-trifluoro-2-hydroxy-2-(trifluoromethyl)propyl)-1H-indazol-5-yl)-2,6-naphthyridin-3-yl)amino)benzenesulfonimidamide], the IC50 in assay [1] (setting [5]) is below 0.025 µM; in assay [2] (setting [9]), 0.025 to 0.25 µM; in assay [3] (setting [7]), 0.025 to 0.25 µM; in assay [4] (setting [8]), 0.025 to 0.25 µM.
Turning to `Cc1c(-c2nccc3cnc(Nc4ccc(S(=N)(=O)NC5CCC5)cc4)cc23)ccc2c1cnn2CC(O)(C(F)(F)F)C(F)(F)F` (single isomer, unassigned) [Ex 680, N-cyclobutyl-4-((5-(4-methyl-1-(3,3,3-trifluoro-2-hydroxy-2-(trifluoromethyl)propyl)-1H-indazol-5-yl)-2,6-naphthyridin-3-yl)amino)benzenesulfonimidamide], the IC50 in assay [1] (setting [14]) was 0.025 to 0.25 µM; in assay [2] (setting [15]), above 0.25 µM; in assay [3] (setting [16]), above 0.25 µM; in assay [4] (setting [17]), above 0.25 µM.
For `Cc1c(-c2nccc3cnc(Nc4ccc(S(=N)(=O)NC5CC5)cc4)cc23)ccc2c1cnn2CC(O)(C(F)(F)F)C(F)(F)F` (single isomer, unassigned) [Ex 681, N-cyclopropyl-4-((5-(4-methyl-1-(3,3,3-trifluoro-2-hydroxy-2-(trifluoromethyl)propyl)-1H-indazol-5-yl)-2,6-naphthyridin-3-yl)amino)benzenesulfonimidamide], the IC50 in assay [1] (setting [18]) is below 0.025 µM; in assay [2] (setting [19]) it was 0.025 to 0.25 µM; in assay [3] (setting [16]) it was above 0.25 µM; in assay [4] (setting [17]) it was above 0.25 µM.
Take `CNS(=N)(=O)c1ccc(Nc2cc3c(-c4ccc5c(cnn5CC(O)(C(F)(F)F)C(F)(F)F)c4C)nccc3cn2)cc1` (single isomer, unassigned) [Ex 683, N-methyl-4-((5-(4-methyl-1-(3,3,3-trifluoro-2-hydroxy-2-(trifluoromethyl)propyl)-1H-indazol-5-yl)-2,6-naphthyridin-3-yl)amino)benzenesulfonimidamide]: the IC50 in assay [1] (setting [18]) is below 0.025 µM; in assay [2] (setting [19]), 0.025 to 0.25 µM; in assay [3] (setting [16]), above 0.25 µM; in assay [4] (setting [20]), 0.025 to 0.25 µM.
Regarding `Cc1c(-c2nccc3cnc(Nc4ccc(S(=N)(=O)Nc5ccccc5)cc4)cc23)ccc2c1cnn2CC(O)(C(F)(F)F)C(F)(F)F` (single isomer, unassigned) [Ex 685, 4-((5-(4-methyl-1-(3,3,3-trifluoro-2-hydroxy-2-(trifluoromethyl)propyl)-1H-indazol-5-yl)-2,6-naphthyridin-3-yl)amino)-N-phenylbenzenesulfonimidamide], the IC50 in assay [1] (setting [14]) is 0.025 to 0.25 µM; in assay [2] (setting [15]), above 0.25 µM; in assay [3] (setting [16]) it was above 0.25 µM; in assay [4] (setting [17]), above 0.25 µM.
Consider `CC1(C)C(=O)Nc2cc(C#Cc3nccc4cnc(Nc5ccc(S(=N)(=O)NC6CCC6)cc5)cc34)ccc21` (single isomer, unassigned) [Ex 688, N-cyclobutyl-4-((5-((3,3-dimethyl-2-oxoindolin-6-yl)ethynyl)-2,6-naphthyridin-3-yl)amino)benzenesulfonimidamide], for which the IC50 was below 0.025 µM in assay [1] (setting [18]), 0.025 to 0.25 µM in assay [2] (setting [19]), above 0.25 µM in assay [3] (setting [16]) and 0.025 to 0.25 µM in assay [4] (setting [20]).
As for `CCNS(=N)(=O)c1ccc(Nc2cc3c(-c4ccc5c(cnn5CC(O)(C(F)(F)F)C(F)(F)F)c4C)nccc3cn2)cc1` (single isomer, unassigned) [Ex 692, N-ethyl-4-((5-(4-methyl-1-(3,3,3-trifluoro-2-hydroxy-2-(trifluoromethyl)propyl)-1H-indazol-5-yl)-2,6-naphthyridin-3-yl)amino)benzenesulfonimidamide], the IC50 is below 0.025 µM in assay [1] (setting [18]), 0.025 to 0.25 µM in assay [2] (setting [19]), above 0.25 µM in assay [3] (setting [16]) and 0.025 to 0.25 µM in assay [4] (setting [20]).
